In PubChem BioAssay (NCI):
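Grown in 96-well plates, cells were treated for 48 hours with each compound at five concentrations. Insufficient inhibition: endpoint recorded as highest concentration tested. TGI is the concentration that stops growth completely.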

Assays:
Experiment in all cases: growth of human tumour cells (NCI), 48 h
COLO 205 colon = system: COLO 205 colon
HOP-18 NSCLC = system: HOP-18 NSCLC
IGROV1 ovarian = system: IGROV1 ovarian
DMS 114 small cell lung = system: DMS 114 small cell lung
NCI-H23 lung = system: NCI-H23 lung
SK-OV-3 ovarian = system: SK-OV-3 ovarian
MALME-3M melanoma = system: MALME-3M melanoma
SNB-75 CNS = system: SNB-75 CNS
KM20L2 colon = system: KM20L2 colon
M19-MEL melanoma = system: M19-MEL melanoma
UACC-257 melanoma = system: UACC-257 melanoma
EKVX NSCLC = system: EKVX NSCLC
HOP-62 NSCLC = system: HOP-62 NSCLC
SK-MEL-2 melanoma = system: SK-MEL-2 melanoma
OVCAR-8 ovarian = system: OVCAR-8 ovarian
786-0 renal = system: 786-0 renal
CCRF-CEM leukemia = system: CCRF-CEM leukemia
KM12 colon = system: KM12 colon
NCI-H522 lung = system: NCI-H522 lung
RXF-631 renal = system: RXF-631 renal
SW-620 colon = system: SW-620 colon
HT29 colon = system: HT29 colon
SK-MEL-5 melanoma = system: SK-MEL-5 melanoma
CAKI-1 renal = system: CAKI-1 renal
SF-268 CNS = system: SF-268 CNS
A498 renal = system: A498 renal
HCC-2998 colon = system: HCC-2998 colon
HCT-15 colon = system: HCT-15 colon
SK-MEL-28 melanoma = system: SK-MEL-28 melanoma
RPMI-8226 leukemia = system: RPMI-8226 leukemia
M14 melanoma = system: M14 melanoma
OVCAR-3 ovarian = system: OVCAR-3 ovarian
HL-60(TB) leukemia = system: HL-60(TB) leukemia
U251 CNS = system: U251 CNS
OVCAR-4 ovarian = system: OVCAR-4 ovarian
TK-10 renal = system: TK-10 renal
NCI-H226 lung = system: NCI-H226 lung
UO-31 renal = system: UO-31 renal
HCT-116 colon = system: HCT-116 colon
DMS 273 small cell lung = system: DMS 273 small cell lung
LOX IMVI melanoma = system: LOX IMVI melanoma
NCI-H460 lung = system: NCI-H460 lung
SNB-19 CNS = system: SNB-19 CNS
HOP-92 NSCLC = system: HOP-92 NSCLC
ACHN renal = system: ACHN renal
OVCAR-5 ovarian = system: OVCAR-5 ovarian
MOLT-4 leukemia = system: MOLT-4 leukemia
SN12C renal = system: SN12C renal
K-562 leukemia = system: K-562 leukemia
SNB-78 CNS = system: SNB-78 CNS
LXFL 529 NSCLC = system: LXFL 529 NSCLC
A549 NSCLC = system: A549 NSCLC
UACC-62 melanoma = system: UACC-62 melanoma
SF-295 CNS = system: SF-295 CNS
DLD-1 colon = system: DLD-1 colon
XF 498 CNS = system: XF 498 CNS
RXF 393 renal = system: RXF 393 renal
SR leukemia = system: SR leukemia
SF-539 CNS = system: SF-539 CNS

Measured: TGI

O=C(O)CNCc1c2ccccc2[n+]([O-])c2ccccc12
91.7 µM: UO-31 renal
78.1 µM: HOP-92 NSCLC
91.1 µM: HL-60(TB) leukemia
not listed: XF 498 CNS | RXF 393 renal | SR leukemia | SF-539 CNS
> 100 µM: all other assays above

Clc1ccc2nc(CCSCCc3nc4ccc(Cl)cc4[nH]3)[nH]c2c1
26.8 µM: U251 CNS
29.7 µM: KM12 colon
24.1 µM: HT29 colon
38.6 µM: RXF 393 renal
33.8 µM: DLD-1 colon
29 µM: COLO 205 colon | DMS 273 small cell lung
34.2 µM: SK-OV-3 ovarian
28.8 µM: SK-MEL-2 melanoma
18.1 µM: MOLT-4 leukemia
34.5 µM: SNB-75 CNS
13.5 µM: RPMI-8226 leukemia
40.4 µM: LOX IMVI melanoma
11.4 µM: ACHN renal
26.5 µM: NCI-H522 lung | HCT-15 colon | M14 melanoma
25.4 µM: IGROV1 ovarian
31.3 µM: NCI-H23 lung | EKVX NSCLC
32.7 µM: SF-539 CNS
41.6 µM: CCRF-CEM leukemia
18.4 µM: SK-MEL-5 melanoma
41.8 µM: NCI-H226 lung
20.2 µM: CAKI-1 renal | SF-295 CNS
37 µM: HOP-18 NSCLC
22.1 µM: TK-10 renal
30.3 µM: SN12C renal
28.5 µM: OVCAR-4 ovarian
19.2 µM: UACC-62 melanoma
38.3 µM: K-562 leukemia
25.2 µM: OVCAR-5 ovarian
1.14 µM: SR leukemia
8.09 µM: HL-60(TB) leukemia
27.5 µM: XF 498 CNS
27.4 µM: M19-MEL melanoma
30.6 µM: HOP-92 NSCLC
28 µM: OVCAR-8 ovarian
34.1 µM: HOP-62 NSCLC
21.6 µM: RXF-631 renal
27 µM: SW-620 colon
31.7 µM: HCC-2998 colon | NCI-H460 lung
24.7 µM: UO-31 renal
19.3 µM: HCT-116 colon
24.9 µM: A549 NSCLC
19 µM: LXFL 529 NSCLC
26.3 µM: UACC-257 melanoma | 786-0 renal

Cc1ccc2[nH]c(=O)c(C(C#N)c3ccccc3)nc2c1 (stereo not drawn)
92.3 µM: KM20L2 colon
76.9 µM: CAKI-1 renal
80.1 µM: SNB-78 CNS
54.8 µM: COLO 205 colon
78.8 µM: RXF 393 renal
84 µM: EKVX NSCLC
89.2 µM: SNB-19 CNS
69.9 µM: UO-31 renal
65.4 µM: SK-MEL-2 melanoma
84.5 µM: U251 CNS
70.7 µM: NCI-H522 lung
75.1 µM: UACC-62 melanoma
93.8 µM: HOP-92 NSCLC
57.8 µM: SK-MEL-5 melanoma
not listed: DMS 114 small cell lung | M19-MEL melanoma | OVCAR-8 ovarian | HL-60(TB) leukemia | XF 498 CNS
> 100 µM: all other assays above

CNC(=O)CN(CC(N)=O)C(=O)NC
not listed: HOP-18 NSCLC | DMS 114 small cell lung | UACC-257 melanoma | HCT-116 colon | SN12C renal
> 100 µM: all other assays above
